Among the data in ChEMBL document CHEMBL3244392, “Synthesis and antiinflammatory activity of some 2-aryl-6-benzoxazoleacetic acid derivatives” (J Med Chem, 1977) are LD50, inhibition in vivo and ED30 values, retold here.

Data set [1] is described as follows: Toxicity in po dosed rat. It counts as organism-based. The following applies: in vivo.
Data set [2] relates to Rattus norvegicus. Nature of the data set: Antiinflammatory activity in rat assessed as inhibition of carrageenan-induced paw edema at 100 mg/kg, po administered as two doses 3 and 0.5 hr prior to challenge measured 2.5 hrs post challenge. It counts as functional. In general terms: Carrageenan injected into the paw causes an acute inflammation.
Data set [3] concerns Rattus norvegicus. Nature of the data set: Antiinflammatory activity in rat assessed as inhibition of carrageenan-induced paw edema at 50 mg/kg, po administered as two doses 3 and 0.5 hr prior to challenge measured 2.5 hrs post challenge. In kind it is functional.
Data set [4] has as its system Rattus norvegicus. Nature of the data set: Antiinflammatory activity in rat assessed as inhibition of carrageenan-induced paw edema at 25 mg/kg, po administered as two doses 3 and 0.5 hr prior to challenge measured 2.5 hrs post challenge. In kind it is functional.
Data set [5] deals with Rattus norvegicus. In words: Antiinflammatory activity in adrenalectomized rat assessed as inhibition of carrageenan-induced paw edema at 25 mg/kg, po administered as two doses 3 and 0.5 hr prior to challenge measured 2.5 hrs post challenge. In kind it is functional.
Data set [6] deals with Rattus norvegicus. In words: Antiinflammatory activity in adrenalectomized rat assessed as inhibition of carrageenan-induced paw edema at 50 mg/kg, po administered as two doses 3 and 0.5 hr prior to challenge measured 2.5 hrs post challenge. In kind it is functional.
Data set [7] relates to Rattus norvegicus. Nature of the data set: Antiinflammatory activity in adrenalectomized rat assessed as inhibition of carrageenan-induced paw edema administered orally 1 hr prior to challenge measured 2.5 hrs post challenge. In kind it is functional. To be noted: po.
Data set [8] relates to Rattus norvegicus. Nature of the data set: Antiinflammatory activity in adrenalectomized rat assessed as inhibition of carrageenan-induced paw edema administered orally 1 hr prior to challenge measured 5 hrs post challenge. In kind it is functional. The following applies: po.
In data set [9] the test system is Rattus norvegicus. Nature of the data set: Antiinflammatory activity in adrenalectomized rat assessed as inhibition of carrageenan-induced paw edema at 100 mg/kg, po administered as two doses 3 and 0.5 hr prior to challenge measured 2.5 hrs post challenge. In kind it is functional.

Structures are written as SMILES.

What is called LD50 is the dose at which mortality reaches 50%. A low value points to greater toxicity. The inhibition in vivo is the share of the control response that was lost under treatment. On to `CC(CO)c1ccc2nc(-c3ccccc3)oc2c1` (stereo not drawn), for which the LD50 in data set [1] came to 800 mg/kg. The inhibition in vivo at 100 mg/kg in the data set on Rattus norvegicus [2] was 61%.
In turn, `CCOC(=O)Cc1ccc2nc(-c3ccccc3)oc2c1` displayed an LD50 in [1] of 1200 mg/kg. The inhibition in vivo at 100 mg/kg in the data set on Rattus norvegicus [2] was determined as 61%.
Regarding `C[C@]12CCC(=O)C=C1CC[C@@H]1[C@@H]2[C@@H](O)C[C@@]2(C)[C@H]1CC[C@]2(O)C(=O)CO` [HYDROCORTISONE], the inhibition in vivo at 50 mg/kg with Rattus norvegicus [3] was determined as 42%.
Turning to `Cl.NCCc1ccc2nc(-c3ccccc3)oc2c1`, in data set [1], the 50% lethal dose (LD50) amounted to 300 mg/kg. Moreover, the inhibition in vivo at 25 mg/kg in the data set with Rattus norvegicus [4] stood at 59%; in the data set on Rattus norvegicus [5] it was 0%.
For `CC(C(=O)O)c1ccc2nc(-c3ccccc3Cl)oc2c1` (stereo not drawn), the inhibition in vivo at 50 mg/kg is 58% in the data set with Rattus norvegicus [6] and 41% with Rattus norvegicus [3]. The ED30 came to 1.98 mg/kg with Rattus norvegicus [7] and 23 mg/kg in the data set with Rattus norvegicus [8]. The compound further came in with a median lethal dose (LD50) in data set [1] of 1200 mg/kg.
For `CC(C(=O)O)c1ccc2nc(-c3ccccc3)oc2c1` (stereo not drawn), the LD50 in data set [1] worked out at 600 mg/kg. Also, in the data set on Rattus norvegicus [3], the inhibition in vivo at 50 mg/kg turned out to be 60%.
Compound `CC(C(=O)O)c1ccc2nc(-c3ccc(F)cc3)oc2c1` (stereo not drawn) had an LD50 in data set [1] of 1200 mg/kg. Further, the inhibition in vivo at 50 mg/kg in the data set on Rattus norvegicus [3] amounted to 48%.
For `CCCCC1C(=O)N(c2ccccc2)N(c2ccccc2)C1=O` [PHENYLBUTAZONE], the ED30 with Rattus norvegicus [7] worked out at 23.8 mg/kg; in the data set with Rattus norvegicus [8] it was 52.6 mg/kg. The inhibition in vivo at 50 mg/kg with Rattus norvegicus [3] is 39%. Besides, the inhibition in vivo at 100 mg/kg in the data set on Rattus norvegicus [9] was 60%.
On to `Cc1ccc(-c2nc3ccc(C(C)C(=O)O)cc3o2)cc1` (stereo not drawn), for which the LD50 in [1] was 1200 mg/kg. In addition, the inhibition in vivo at 50 mg/kg in the data set with Rattus norvegicus [3] is 43%.
Turning to `CC(C(=O)O)c1ccc2nc(-c3ccc(Cl)cc3)oc2c1` (stereo not drawn), the ED30 in the data set with Rattus norvegicus [7] is 2.4 mg/kg; with Rattus norvegicus [8] it was 11 mg/kg. The same compound registered an LD50 in [1] of 1200 mg/kg. Moreover, in the data set on Rattus norvegicus [3], the inhibition in vivo at 50 mg/kg amounted to 28%.
In the case of `CC(C(=O)O)c1ccc2oc(-c3ccc(Cl)cc3)nc2c1` (stereo not drawn) [BENOXAPROFEN], the ED30 with Rattus norvegicus [7] was 13.4 mg/kg; in the data set with Rattus norvegicus [8] it was 10.6 mg/kg. In data set [1], the LD50 turned out to be 800 mg/kg. For the same compound, in the data set with Rattus norvegicus [3], the inhibition in vivo at 50 mg/kg stood at 78%.
Regarding `CC(C(=O)O)c1ccc2nc(-c3ccc(Cl)cc3Cl)oc2c1` (stereo not drawn), in [1], the LD50 was determined as 300 mg/kg. For the same compound, the results for the inhibition in vivo at 25 mg/kg with Rattus norvegicus [4] and in the data set with Rattus norvegicus [5] were 49% and 56%, respectively.
Compound `Cc1ccc2nc(-c3ccccc3)oc2c1` gave an LD50 in data set [1] of less than 1600 mg/kg. Further, the inhibition in vivo at 50 mg/kg with Rattus norvegicus [3] was determined as 10%.
In turn, `O=C(O)Cc1ccc2nc(-c3ccccc3)oc2c1` displayed an LD50 in [1] of 1200 mg/kg. The inhibition in vivo at 100 mg/kg in the data set on Rattus norvegicus [2] is 60%; in the data set with Rattus norvegicus [9], 50%.
In turn, `CC(CN)c1ccc2nc(-c3ccccc3)oc2c1.O=C(O)CCC(=O)O` (stereo not drawn) had an LD50 in data set [1] of 300 mg/kg. In addition, the inhibition in vivo at 25 mg/kg in the data set on Rattus norvegicus [4] stood at 0%.
In the case of `OCCc1ccc2nc(-c3ccccc3)oc2c1`, the LD50 in data set [1] is more than 1600 mg/kg. Further, in the data set with Rattus norvegicus [2], the inhibition in vivo at 100 mg/kg came to 47%.
